Measurements published in patent US20090105237A1, “Cooling compounds” (priority 2005, published 2009).

How the values were obtained:
Type in all cases: in vivo
panelists = assay: Panel tasting of solutions of cooling compounds: concentration with cooling intensity similar or slightly higher than menthol at 2 ppm; conditions: solution with cooling intensity similar or slightly higher than a solution of menthol at 2 ppm; small group of panelists
mouth [1] = assay: Application in toothpaste: panelist's teeth brushed with toothgel, mouth rinsed with water
Excerpt: The chemicals are mixed in the toothgel, a piece of toothgel was put on a toothbrush and a panelist's teeth were brushed. The mouth was rinsed with water and the water was spit out. […] The cooling perception lasted for several hours.

mouth [2] = assay: Application in chewing gum: gum stick chewed by a panelist for 15 minutes and spit out
Experimental: All the ingredients are mixed in the prewarmed gum base. The mixture is spread in thick films, cooled down and cut in sticks. A gum stick is chewed by a panelist for 15 minutes and spit out. […] When spit out, the cooling sensation becomes intense and lasts for several hours

| SMILES | Concentration (panelists) [ppm] | also measured |
| --- | --- | --- |
| CC1CCC(C(C)C)C(O)C1 (stereo not drawn) [Example 1-Menthol, 1-Menthol, reference compound] | 2.0 |  |
| CC1CCC(C(C)C)C(C(=O)Nc2ccccc2C(N)=O)C1 (stereo not drawn) [Example 3, N-(2-carboxamidophenyl) p-menthanecarboxamide] | 0.5 | cooling sensation after brushing (mouth [1]; 0.500 g of a 5% gel in peppermint oil in 99.500 g opaque toothgel, after rinsing, all areas of the mouth): intense cooling sensation; duration of cooling perception (mouth [1]; toothgel, after brushing and rinsing): several hours |
| CCNC(=O)C1CC(C)CCC1C(C)C (stereo not drawn) [N-ethyl p-menthanecarboxamide (WS-3), N-ethyl p-menthanecarboxamide, reference compound] | 1.5 |  |
| COCCNC(=O)c1ccc(NC(=O)C2CC(C)CCC2C(C)C)cc1 (stereo not drawn) [Example 4, 4-[p-menthanecarbonyl-amino]-N-(2-methoxy-ethyl)-benzamide] | 0.25 |  |
| CC1CCC(C(C)C)C(C(=O)Nc2ccc(C(N)=O)cc2)C1 (stereo not drawn) [Example 1, N-(4-carboxamidophenyl) p-menthanecarboxamide] | 0.15 | cooling sensation when spit out (mouth [2]; chewing gum with 0.100 g compound per about 100 g, with peppermint oil, after 15 minutes of chewing): intense; cooling sensation when chewed (mouth [2]; chewing gum with 0.100 g compound per about 100 g, with peppermint oil, chewed 15 minutes, all areas of the mouth): agreeable cooling sensation; duration of cooling sensation (mouth [2]; chewing gum, after it is spit out): several hours |
| CC1CCC(C(C)C)C(C(=O)Nc2ccc(C(=O)N3CCN(C)CC3)cc2)C1 (stereo not drawn) [Example 5, N-(4-(4-methylpiperazine-1-carbonyl)phenyl) p-menthanecarboxamide] | 0.4 |  |
| CC1CCC(C(C)C)C(C(=O)Nc2cccc(C(N)=O)c2)C1 (stereo not drawn) [Example 2, N-(3-carboxamidophenyl) p-menthanecarboxamide] | 0.2 |  |
